Tests used:
502713 = assay: SRB in vitro cytotoxicity, human tumor cell line; type: cell-based; conditions: 10^-5 M, Colon: 502713, read-out: growth inhibition
Procedure: (§1) Compounds 3a-g were screened by sulforhodamine-B (SRB) semi-automated assay in a battery of cell lines. […] A., et. al. (1991); Feasibility high flux anticancer screen utilizing diverse panel of human tumor cell lines in culture. J Natl Cancer Inst. 83, 757-766]. Each compound was tested in triplicate sets of experiments at 10^-4 to 10^-6 M concentrations (Table 4).
(§2) A stock solution of 2 x 10^-2M was prepared in DMSO. The stock solutions were serially diluted to obtain working test solutions with complete growth medium (RPMI-1640 medium with 2mM glutamine, 100µg/ml streptomycin, pH 7.4, sterilized by filtration and supplemented with 10% fetal bovine serum and 100 units/ml penicillin before use) containing 50 µg/ml of gentamycin to obtain working test solutions. The working test solutions were not filtered/ sterilized but microbial contamination was controlled by addition of gentamycin in complete growth medium used for dilution of stock solutions to prepare working test solutions.
(§3) In vitro cytotoxicity against human cancer cell lines was determined^2 [Monk. A., et. al. (1991); Feasibility high flux anticancer screen utilizing diverse panel of human tumor cell lines in culture. J Natl Cancer Inst. 83, 757-766] using 96-well tissue culture plates. The cells were grown in tissue culture flasks in complete growth medium at 37°C in an atmosphere of 5% CO2 and 95% relative humidity in a carbon dioxide incubator. The cell suspension of required cell density (1-2 lakhs/ml) depending on the mass doubling time of cell lines was prepared in complete growth medium for determination of cytotoxicity. The aliquots of 100 µl of cell suspension were added to each well on a 96-well tissue culture plate. The blank wells contained complete medium in place of cell suspension. Simultaneously, control experiments with positive controls containing known anticancer agents were carried out. Cells were incubated for 24 hr.
(§4) The test materials (100 µl in each well) were added after 24-hours to the wells containing cell suspension and blank wells. The cells were allowed to grow in presence of test material by further incubating the plates for 48 hours. At the end of incubation period the cell growth was stopped by gently layering trichloroacetic acid (50% TCA, 50µl/well) on top of the medium in all the wells. The plates were incubated at 4°C for 1 hr. The plates were washed five times with distilled water to remove TCA, growth medium, low molecular weight metabolites, serum proteins etc. and air-dried.
(§5) The cell growth was measured^3 [Skehan, P, Storeng, R Scudiero, D, Monks, A, Mcmahon, J, Vistica, D, Warren, J.T., Bokesch, H., Kenney, S., Boyd, M.R. (1990). New colorimetric cytotoxicity assay for anti-cancer drug screening. J Natl Cancer Inst. 82: 1107-12] by staining with Sulphorhodamine B. Sulphorhodamine B (SRB, 0.4% in 1% acetic acid, 100 µl/well) was added to each well and plates were allowed to stand at room temperature for 30 minutes. The plates were washed with 1% acetic acid four times and then dried. Tris-HCl buffer (0.01 M, pH 10.5, 100 µl/well) was added to each well to solublise the dye. The plates were shaken gently for 10 minutes on a shaker and the optical density was recorded on ELISA reader at 540 nm. The cell growth was determined by subtracting mean OD value of respective blank from the mean OD value of experimental set. Percent growth in presence of test material was calculated considering the growth in absence of any test material as 100% and in turn percent growth inhibition in presence of test material was calculated. All the experiments were carried out in quadruplicate.

A549 = assay: SRB in vitro cytotoxicity, human tumor cell line; type: cell-based; conditions: 10^-5 M, Lung: A549, read-out: growth inhibition
Procedure: as §1, §2, §3, §4, §5

COLO-205 = assay: SRB in vitro cytotoxicity, human tumor cell line; type: cell-based; conditions: 10^-5 M, Colon: COLO-205, read-out: growth inhibition
Procedure: as §1, §2, §3, §4, §5

DU-145 = assay: SRB in vitro cytotoxicity, human tumor cell line; type: cell-based; conditions: 10^-5 M, Prostate: DU-145, read-out: growth inhibition
Procedure: as §1, §2, §3, §4, §5

HCT-15 = assay: SRB in vitro cytotoxicity, human tumor cell line; type: cell-based; conditions: 10^-5 M, Colon: HCT-15, read-out: growth inhibition
Procedure: as §1, §2, §3, §4, §5

HT-29 = assay: SRB in vitro cytotoxicity, human tumor cell line; type: cell-based; conditions: 10^-5 M, Colon: HT-29, read-out: growth inhibition
Procedure: as §1, §2, §3, §4, §5

Hep-2 = assay: SRB in vitro cytotoxicity, human tumor cell line; type: cell-based; conditions: 10^-5 M, Liver: Hep-2, read-out: growth inhibition
Procedure: as §1, §2, §3, §4, §5

IMR-32 = assay: SRB in vitro cytotoxicity, human tumor cell line; type: cell-based; conditions: 10^-5 M, Neuroblastoma: IMR-32, read-out: growth inhibition
Procedure: as §1, §2, §3, §4, §5

MCF-7 = assay: SRB in vitro cytotoxicity, human tumor cell line; type: cell-based; conditions: MCF7, 10^-5 M, Breast: MCF-7, read-out: growth inhibition
Procedure: as §1, §2, §3, §4, §5

OVCAR-5 = assay: SRB in vitro cytotoxicity, human tumor cell line; type: cell-based; conditions: 10^-5 M, Ovary: OVCAR-5, read-out: growth inhibition
Procedure: as §1, §2, §3, §4, §5

PC-3 = assay: SRB in vitro cytotoxicity, human tumor cell line; type: cell-based; conditions: 10^-5 M, Prostate: PC-3, read-out: growth inhibition
Procedure: as §1, §2, §3, §4, §5

SK-N-SH = assay: SRB in vitro cytotoxicity, human tumor cell line; type: cell-based; conditions: 10^-5 M, Neuroblastoma: SK-N-SH, read-out: growth inhibition
Procedure: as §1, §2, §3, §4, §5

SKOV-3 = assay: SRB in vitro cytotoxicity, human tumor cell line; type: cell-based; conditions: SK-OV-3, 10^-5 M, Ovarian: SKOV-3, read-out: growth inhibition
Procedure: as §1, §2, §3, §4, §5

SW-620 = assay: SRB in vitro cytotoxicity, human tumor cell line; type: cell-based; conditions: 10^-5 M, Colon: SW-620, read-out: growth inhibition
Procedure: as §1, §2, §3, §4, §5

caspase-3 = assay: Caspase-3 colorimetric assay in MOLT-4 cells; type: cell-based, Human; conditions: 5 µg/ml, 12 hrs
Procedure: Caspase 3 activity was measured by using caspase-3 colorimetric Assay kit (R&D Systems USA). […] Cell lysates were mixed with 10µL of dithiothreitol (DTT) and 50µL reaction buffer (2X) containing 5 µL DEVD-pNA, a caspase-3 substrate, and incubated upto 24 hr at 37°C. Additional controls were included in this assay containing no cell lysate without substrate Enzyme-catalyzed release of pNA was monitored using a microplate reader at 405 nm (Fig. 2). Likewise, Caspase 6 activity was also measured using caspase-6 colorimetric Assay kit (R&D Systems USA). However, the enzyme and enzyme substrate (VEID-pNA) were different (Fig. 3). Treatment of the cells with Compound 3f induced caspase-3/6 activities. […] (Fig 2).

S-180 = assay: In vivo anticancer activity: increase in median survival time; design: species or system Swiss albino male mice; conditions: S-180, 7 injns.

O=C1c2cccc3c([N+](=O)[O-])ccc(c23)C(=O)N1CCCCl [Compound 3f, 6-Nitro-2-[3-(Chloropropyl)]-1H-benz[de]isoquinoline-1,3-dione]
> 50%: inhibition at 10 µM 502713 | inhibition at 10 µM (COLO-205) | inhibition at 10 µM (DU-145) | inhibition at 10 µM (HCT-15) | inhibition at 10 µM (HT-29) | inhibition at 10 µM (Hep-2) | inhibition at 10 µM (IMR-32) | inhibition at 10 µM (MCF-7) | inhibition at 10 µM (OVCAR-5) | inhibition at 10 µM (PC-3) | inhibition at 10 µM (SK-N-SH) | inhibition at 10 µM (SW-620)
maximum at 5 µg/ml at 12 hrs: Caspase-3 activity (caspase-3)
≤ 50%: inhibition at 10 µM (A549) | inhibition at 10 µM (SKOV-3)
25.0 days: MST (S-180; 30 mg/kg i.p., days 1-7)
29.0 days: MST (S-180; 60 mg/kg i.p., days 1-7)
21.0 days: MST (S-180; 60 mg/kg i.p., days 5-11)
